Laboratory results: patent US20230338397A1, “COMPOSITION COMPRISING CANNABINOIDS, AND/OR TERPENS, AND METHODS OF USING SAME” (priority 2020, published 2023)
“Also recorded” adds a separate entry of the source.

How the values were obtained:
[1] = tested on: dispersed nasal polyp cells; test: Cell death of dispersed NP cells (PI, flow cytometry), 2 h; assay type: cell-based, human; conditions: 10 μM, 2 h incubation, FIG. 12
Protocol: DNPCs are prepared from nasal polyps by means of enzymatic digestion. Nasal Polyps are incubated for 2 hours at 37° C. in RPMI 1640 (1 g of tissue per 4 mL) containing 2.0 mg/mL protease, 1.5 mg/mL collagenase, 0.75 mg/mL hyaluronidase, and 0.05 mg/mL DNase. The cell suspension is then filtered through a […] cell strainer to remove any undigested tissue and washed 2 times with washing medium (RPMI 1640 supplemented with 2% FCS, 2 mmol/L glutamine, 100 U/mL penicillin, and […] streptomycin). The cell pellet is resuspended in erythrocyte lysis buffer and washed with washing medium. After washing, DNPCs are suspended in culture medium (RPMI 1640 supplemented with 10% Foetal Calf Serum (FCS), 2 mmol/L glutamine, 100 U/mL penicillin, and […] streptomycin).
The effect of the treatment is evaluated by cell death parameters, using […] (PI) and flow cytometry (FACS) analysis, and enzymatic-linked immunoassay (ELISA).

[2] = tested on: enzymatically-dissociated human NP; test: NP organ culture: cell death by PI and flow cytometry after enzymatic digestion; conditions: for cell death of incubated nasal polyp cells: 72 h, FIG. 10
human Jurkat T cell line = test: T cell death in Jurkat cells (PI, flow cytometry); conditions: 2 h, FIG. 11; for T cell death compared to vehicle: CBD 1-20 μM, CBG 5-20 μM
human NP tissue = test: NP organ culture: tissue weight reduction ex-vivo; conditions: for NP tissue weight reduction: 150 μM
[3] = tested on: human nasal polyp (NP) whole tissues; test: NP organ culture: detachment of cells/tissue pieces from nasal polyp (micrographs)
GM-CSF = GM-CSF level in SEB-stimulated dispersed nasal polyp cells; assay type: cell-based, human; conditions: CBD 2.5 μM, 5 μM, 10 μM, 30 min before SEB, FIG. 8

CCCCCc1cc(O)c(C/C=C(\C)CCC=C(C)C)c(O)c1 [CBG, cannabigerol]
cell death % of dispersed NP cells [1]: significant increase in cell death %; also recorded: significant increase in cell death
cell death of NP cells ([2]; CBG 150 μM, FIG. 13C-13D): substantial cell death
T cell death compared to vehicle (human Jurkat T cell line): significant cell death compared to control
size of nasal polyps (human NP tissue; CBG 150 μM, 24 h, FIG. 13A): size of nasal polyps is reduced

C=C(C)[C@@H]1CCC(C)=C[C@H]1c1c(O)cc(CCC)cc1O [CBDV, cannabidivarin]
T cell death (human Jurkat T cell line; CBDV 20 μM): induce cell death

CCCCCc1cc(O)c2c(c1)OC(C)(C)[C@@H]1CCC(C)=C[C@@H]21 [THC, tetrahydrocannabinol]
viability of nasal polyp cells (cell death) ([2]; THC 10 μM and 100 μM, 24 h, FIG. 9): comparable effect as CBD at 15 μM and 150 μM, respectively
% cell death ([2]; THC 100 μM, FIG. 9): comparable effect to CBD at a concentration of 150 μM
cell death of incubated nasal polyp cells ([2]; THC alone 10 μM): negligible

C=C(C)[C@@H]1CCC(C)=C[C@H]1c1c(O)cc(CCCCC)cc1O [CBD, cannabidiol]
cell death % of dispersed NP cells [1]: significant increase in cell death %; also recorded: significant increase in cell death
percent of dead cells ([2]; CBD 15 μM, 150 μM, 1.5 mM, 24 h, PI-positive, FIG. 7): significantly increased the percent of dead cells
cell death of incubated nasal polyp cells ([2]; CBD alone 150 μM): substantial cell death
detachment of cells/tissue pieces from the main NP ([3]; CBD 150 μM, 3 h incubation, FIG. 1): starting to detach from the main NP whole tissue; also recorded: starting to detach and disaggregate from the main polyp
cells/tissue pieces breaking off the main polyp ([3]; CBD 150 μM, 72 h incubation, FIG. 3): cells/tissue pieces are breaking off the main polyp into the medium
detachment of cells/tissues from the main NP ([3]; CBD 600 μM, 24 h incubation, FIG. 2): significant detachment of cells/tissues; also recorded: significant detachment of nasal polyp cells/pieces
T cell death compared to vehicle (human Jurkat T cell line): significant cell death compared to control
NP tissue weight reduction (human NP tissue; 3 h incubation, FIG. 4): significant tissue weight reduction; also recorded: significant nasal polyp weight reduction
NP tissue weight reduction (human NP tissue; CBD 15 μM, 1.5 mM, 24 h incubation, FIG. 5): significant human NP tissue weight reduction; also recorded: significant dose-dependent nasal polyp weight reduction
GM-CSF level (GM-CSF): significantly decrease; also recorded: significantly reduces or inhibits
